We go through seven compounds from publication PMC8365601, “Terphenyl-Based Small-Molecule Inhibitors of Programmed Cell Death-1/Programmed Death-Ligand 1 Protein–Protein Interaction” (Journal of Medicinal Chemistry, 2021).

Like-named read-outs stand apart in the source and are kept apart here. Bounds are passed on as bounds.

A word on the IC50: it is the point on the concentration scale where inhibition reaches its midpoint. The EC50 is the midpoint of the concentration-response curve.

Data set [1] addresses T1, human PD-L1 (Homo sapiens, UniProt Q9NZQ7).
T1 construct: pET-21b plasmid carrying the PD-L1 gene (amino acids 18–134); made in house; host or cells: Escherichia coli BL21
Description: 1H NMR titration with human PD-L1. The class given is binding. Particulars: molar ratio 1:1. How it is done:
NMR spectra were recorded in PBS pH 7.4 containing 10% (v/v) of D2O added to the samples to provide the lock signal. Water suppression was carried out using the WATERGATE sequence. All the spectra were recorded at 300 K using a Bruker AVANCE 600 MHz spectrometer with the cryo-platform. The spectra were recorded at the ligand/protein ratio of 1:1, unless stated otherwise. The samples were prepared by adding small amounts of a 50 mM ligand stock solution in DMSO to the protein solution (0.20 mL) of PD-L1 fragment at a concentration of 0.2 mM. Spectra were visualized using TopSpin 4.0.2.

Data set [2] deals with PD-1/PD-L1 complex (Homo sapiens, UniProt Q9NZQ7). The experiment in a line: HTRF assay of PD-1/PD-L1 complex dissociation (CisBio).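 As to all read-outs here: human PD-L1 at 5 nM with human PD-1 at 50 nM, TR-FRET signal read after 2 h at room temperature, background removed via negative control and scaled to positive control.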 Particulars: for IC50: HTRF; for complex dissociation: 5 nM ligand; for remaining activity at 0.005 µM: 2 h.
Description: HTRF was performed using the certified CisBio assay according to the manufacturer’s guidelines. The experiments were performed at 5 nM h-PD-L1 and 50 nM hPD-1 in the final formulation at 20 μL final volume in the well. To determine the half-maximal inhibitory concentration (IC50) of tested compounds, measurements were performed on two individual dilution series, unless states otherwise. After mixing all components according to the CisBio protocol, the plate was left for 2 h incubation at room temperature, followed by time-resolved fluorescence energy transfer (TR-FRET) measurement on Tecan Spark 20M. Collected data were background-subtracted on the negative control, normalized on the positive control, averaged, and fitted with normalized Hill’s equation to determine the IC50 value using Mathematica 12.
Data set [3] addresses T2, PD-1/PD-L1 interaction (Homo sapiens, UniProt Q9NZQ7).
T2 construct: host or cells: CHO-K1 (CHO/TCRAct/PD-L1) and Jurkat effector cells
The experiment in a line: PD-1/PD-L1 ICB assay (Jurkat-ECs with CHO/TCRAct/PD-L1 cells, luciferase). The conditions noted are these: for EC50: Jurkat-ECs with CHO/TCRAct/PD-L1, 6 h, SI csv, read-out: Bioactivity (EC50 in the ICB assay); for selectivity of PD-1/PD-L1-blocking activity versus cytotoxicity: EC50 (tox.) vs EC50 (bio.), Figure 3F. It counts as cell-based. The protocol: After a successful optimization of the terphenyl compounds, the activity of the optimized molecules 7a and 8a–j in a cellular context was assessed. To this end, we first performed the PD-1/PD-L1 ICB assay. In this assay, T-cell receptor (TCR)-mediated activation of Jurkat effector cells (Jurkat-ECs) is reduced by the presence of PD-L1, exposed at the surface of CHO/TCRAct/PD-L1 cells (Figure 3A).
(§1) The functional assay of the blockade of PD-1/PD-L1 interaction in vitro (PD-1/PD-L1 Blockade Bioassay, Promega) was performed according to the manufacturer’s protocol. CHO/TCRAct/PD-L1 cells or CHO/TCRAct or CHO-K1 cells were seeded on 96-well white plates at the density of 10,000 cells/well and the next day overlaid with Jurkat T cells (20,000 cells/well) in the presence of increasing concentrations of the compounds with DMSO only as a control (the concentration of DMSO was kept constant at 0.1%) or atezolizumab, as a positive control, anti-PD-L1 monoclonal antibody (Selleckchem). The 2.5-fold dilutions of atezolizumab were prepared in the assay buffer (RPMI 1640 + 1% FBS) on the day of the assay. Activation of the Jurkat T cells, reflected by luciferase activity, was monitored by luminescence measurements after 6 h of incubation (37 °C, 5% CO2), and 20 min of additional incubation with the Bio-Glo assay reagent (Promega) at room temperature. The luminescence was read on a Spark microplate reader (Tecan). The data are presented as fold induction of the luminescence signal relative to either untreated (for atezolizumab) or DMSO-treated (for compound) cells. Data points represent mean ± SD values from three to five independent experiments. Half-maximal effective concentrations (EC50 values) were calculated from the Hill curve fitting to the experimental data using Origin Pro 2020 software (OriginLab).

Data set [4] can be described thus: Cytotoxicity assay toward Jurkat-ECs. The class given is cell-based. The conditions noted are these: human, Jurkat-EC cells, SI csv. How it is done: The cytotoxicity of compounds was verified toward Jurkat-ECs since these cells provide the readout in the ICB assay and present a much higher degree of susceptibility to the compounds’ toxicity than CHO-K1 cells (not shown). Jurkat-ECs were seeded on 96-well transparent plates in the presence of increasing concentrations of the compounds with DMSO-treated cells as a control. The concentration of DMSO was kept constant (0.1%). After 48 h of incubation, a tetrazolium reagent, Biolog redox dye MIX MB (Biolog), was added according to the manufacturer’s protocol, and the culture plates were incubated for an additional 2 h (37 °C, 5% CO2). The absorbance was measured using a Spark microplate reader (Tecan) at 590 nm with 750 nm as a reference. The data are presented as Jurkat-EC survival relative to DMSO-treated control cells. Data points represent mean ± SD values from three independent experiments. Half-maximal effective concentrations (EC50 values) were calculated from the dose–response curve using OriginPro 2020 (OriginLab) software.

For data set [5], the system named is primary CD4+ and CD8+ T cells (PBMCs). The experiment in a line: T-cell activation (TCA) assay, PBMCs with CHO/TCRAct/PD-L1 cells, flow cytometry. The class given is cell-based, human. The conditions noted are these: 48 h; compounds 0.1, 0.5, 2.5 μM; mAbs 5 μg/mL. The protocol: A standard ICB assay relies on artificial Jurkat-ECs, which are surrogates of T-cells. To verify the potential of the compounds to reactivate the PD-L1-blocked primary T cells, a modified assay termed T-cell activation (TCA) was carried out.[32] In this assay, human primary peripheral blood mononuclear cells (PBMCs) are allowed to make contact with CHO/TCRAct/PD-L1 cells alone or in the presence of PD-1/PD-L1 blockers, and the activation of CD4^+ and CD8^+ T cell is monitored by flow cytometry.
Anticoagulant citrate dextrose-A-treated blood from healthy donors was purchased from the Regional Center of Blood Donation and Blood Therapy in Krakow, Poland. PBMCs were isolated from whole blood by density gradient centrifugation using Pancoll human separating solution (PAN-Biotech GmbH, Aidenbach, Germany). The separated cells were washed and resuspended in RPMI 1640 medium (Biowest) containing 10% FBS (Biowest). PBMCs were added at an amount of 3 × 10^5 to CHO, CHO/TCRAct, or CHO/TCRAct/PD-L1 cells preseeded on 24-well plates in the presence of either anti-PD-L1 mAbs (at the final concentration 5 μg/mL): durvalumab (Selleckchem), atezolizumab (Selleckchem), or avelumab (MedChemExpress) or tested compounds at the concentrations 0.1, 0.5, and 2.5 μM. Untreated cells were used as controls for antibody treatment, while DMSO-treated cells [0.1% (v/v)] were used as controls for compound treatment. The cells were incubated for 48 h (37 °C, 5% CO2) and then detached from the plates with TrypLe Select Enzyme (Thermo Fisher). PBMCs were stained for 20 min at room temperature with the antibodies: anti-CD4-FITC, anti-CD8-BV510, anti-CD69-APC, anti-CD25-PE, anti-HLA-DR-PerCP, and anti-PD1-PECy7 (Becton Dickinson Biosciences, BD). Following two washing steps, the cells were analyzed with a FACSCanto II cytometer. Data analysis was carried out with FlowJo software, followed by statistical significance calculations done with Origin Pro 2020 software (OriginLab). Statistical significance was analyzed with one-way analysis of variance (ANOVA), followed by the Fisher’s posthoc test: *p < 0.05, **p < 0.01, […].

In data set [6] the test system is Jurkat-ECs alone or with CHO wt or CHO/TCRAct cells. The experiment in a line: ICB assay control where PD-L1 is absent. It counts as cell-based. Particulars: 6 h; Figure S1. How it is done:
as §1, with “(OriginLab). […]” for “(OriginLab).”
of the Immune Checkpoint Blockade (ICB) assay, where 8h, 8i, and 8j were used to restore the activation of effector Jurkat-ECs. Jurkat-ECs were either kept alone, or contacted with one of the following cell lines: wild type CHO K1 cells (CHO wt), CHO K1 cells expressing TCR Activator (CHO/TCRAct), or CHO K1 cells expressing TCR Activator and […]. The cells were incubated with the indicated concentrations of the compounds for 6 hours and luminescence was measured as an indicator of TCR-dependent activation of Jurkat-ECs. The graphs present fold induction of the luminescence signal relative to DMSO-treated cells. […]

The mark [7] stands for this setting: read-out: % of undissociated complex at 5 nM.
Setting [8] is: read-out: HTRF % of the undissociated complex at 5 nM.
The mark [9] stands for this setting: Table 4, <1.00 = limit of quantification reached.

T1 sequence (Q9NZQ7 18-134): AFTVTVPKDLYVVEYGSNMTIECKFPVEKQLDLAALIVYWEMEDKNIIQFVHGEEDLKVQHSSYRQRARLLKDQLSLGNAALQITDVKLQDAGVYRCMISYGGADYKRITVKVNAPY
Chain of PD-1/PD-L1 complex (Q9NZQ7 19-238 limits assumed, one chain of several): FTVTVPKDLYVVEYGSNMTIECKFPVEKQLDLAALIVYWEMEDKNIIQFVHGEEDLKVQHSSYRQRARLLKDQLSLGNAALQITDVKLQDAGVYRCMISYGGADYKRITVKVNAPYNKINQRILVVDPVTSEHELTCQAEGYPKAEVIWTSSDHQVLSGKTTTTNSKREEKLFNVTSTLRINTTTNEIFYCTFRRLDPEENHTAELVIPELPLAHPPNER
T2 sequence (Q9NZQ7 19-290): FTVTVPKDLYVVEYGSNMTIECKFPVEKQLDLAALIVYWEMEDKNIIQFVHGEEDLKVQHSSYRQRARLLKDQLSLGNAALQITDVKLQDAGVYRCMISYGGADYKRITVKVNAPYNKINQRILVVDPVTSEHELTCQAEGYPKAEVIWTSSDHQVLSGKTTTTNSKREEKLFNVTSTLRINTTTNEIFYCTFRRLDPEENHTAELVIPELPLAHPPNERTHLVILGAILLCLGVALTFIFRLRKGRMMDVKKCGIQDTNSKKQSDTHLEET

In the case of `Cc1c(-c2ccc(CO)cc2)cccc1-c1ccc2c(c1)OCCO2` [4a, (3′-(Benzo-1,4-dioxan-6-yl)-2′-methyl-[1,1′-biphenyl]-4-yl)methanol], the “change of hPD-L1 1H NMR spectrum on adding compound” value (shortened to “change of hPD-L1 1H NMR spectrum”) in data set [1] is “broadening of the hPD-L1 proton signals”. The compound further came in with a half-inhibitory concentration (IC50) in data set [2] (Table 1) of 5.52 ± 0.04 µM.
With `COc1cc(-c2cccc(-c3ccc4c(c3)OCCO4)c2Cl)ccc1CNCCNC(C)=O` [7a, N-(2-(((3′-(Benzo-1,4-dioxan-6-yl)-2′-chloro-3-methoxy-[1,1′-biphenyl]-4-yl)methyl)amino)ethyl)acetamide], the “change of hPD-L1 1H NMR spectrum” value in data set [1] is reported as “broadening of the hPD-L1 proton signals”. The concentration for a half-maximal effect (EC50) in data set [3] was 2.82 ± 0.4 µM. In data set [4], the concentration giving a half-maximal response (EC50) at 48 h worked out at 3.19 ± 0.41 µM. Besides, in data set [2], the complex dissociation result was “complete complex dissociation”. For the same compound, the remaining activity at 0.005 µM in data set [2] (setting [7]) and in data set [2] (setting [8]) was 0% each time. The same compound showed an IC50 in data set [2] (Table 3) of 0.00082 ± 2e-05 µM.
As for `CC(=O)NCCNCc1ccc(-c2cccc(-c3ccc4c(c3)OCCO4)c2Cl)cc1OCC#N` [7e, N-(2-(((3′-(Benzo-1,4-dioxan-6-yl)-2′-chloro-3-(cyanomethoxy)-[1,1′-biphenyl]-4-yl)methyl)amino)ethyl)acetamide], the “change of hPD-L1 1H NMR spectrum” value in data set [1] is given as “broadening of the hPD-L1 proton signals”. The same compound registered a complex dissociation in data set [2] of 99%. The remaining activity at 0.005 µM in data set [2] (setting [7]) and in data set [2] (setting [8]) was 1% in each case.
Regarding `COc1cc(-c2cccc(-c3ccc4c(c3)OCCO4)c2Cl)ccc1CNCCNC(=O)CN` [8f, 2-Amino-N-(2-(((3′-(benzo-1,4-dioxan-6-yl)-2′-chloro-3-methoxy-[1,1′-biphenyl]-4-yl)methyl)amino)ethyl)acetamide], the half-maximal effective concentration (EC50) in data set [3] is 3.28 ± 0.6 µM. The EC50 at 48 h in data set [4] was 3.1 ± 0.22 µM. The remaining activity at 0.005 µM in data set [2] (setting [7]) and in data set [2] (setting [8]) was 8% throughout. The compound also yielded an IC50 in data set [2] (setting [9]) of under 0.001 µM.
On to `COc1cc(-c2cccc(-c3ccc4c(c3)OCCO4)c2Cl)ccc1CNCCNS(C)(=O)=O` [8g, N-(2-(((3′-(Benzo-1,4-dioxan-6-yl)-2′-chloro-3-methoxy-[1,1′-biphenyl]-4-yl)methyl)amino)ethyl)methanesulfonamide], for which the concentration for a half-maximal effect (EC50) in data set [3] turned out to be 11.1 ± 4.35 µM. Besides, the concentration for a half-maximal effect (EC50) at 48 h in data set [4] stood at 4.47 ± 0.58 µM. For the same compound, the remaining activity at 0.005 µM in data set [2] (setting [7]) and in data set [2] (setting [8]) was 32% each time. Further, it took 0.00207 ± 4e-05 µM to reach half-maximal inhibition in data set [2] (setting [9]) (IC50).
With `COc1cc(-c2cccc(-c3ccc4c(c3)OCCO4)c2Cl)ccc1CNCCNC(N)=O` [8h, 1-(2-(((3′-(Benzo-1,4-dioxan-6-yl)-2′-chloro-3-methoxy-[1,1′-biphenyl]-4-yl)methyl)amino)ethyl)urea], the “selectivity of PD-1/PD-L1-blocking activity versus cytotoxicity” value in data set [3] is recorded as “highest selectivity”. The EC50 in data set [3] was found to be 2 ± 0.37 µM. This compound also showed an EC50 at 48 h in data set [4] of 4.14 ± 0.71 µM. In data set [5], the “numbers of PD-1-positive T cells” value is reported as “significant increase”. Further, the “activation of Jurkat-ECs where PD-L1 is absent” value in data set [6] is on record as “requires the presence of PD-L1”. Besides, the remaining activity at 0.005 µM in data set [2] (setting [7]) and in data set [2] (setting [8]) was 6% in each case. In data set [2] (setting [9]), this compound came in with an IC50 of under 0.001 µM.
Take `COc1cc(-c2cccc(-c3ccc4c(c3)OCCO4)c2Cl)ccc1CNC(CO)CO` [8i, 2-(((3′-(Benzo-1,4-dioxan-6-yl)-2′-chloro-3-methoxy-[1,1′-biphenyl]-4-yl)methyl)amino)propane-1,3-diol]: in data set [3], the “selectivity of PD-1/PD-L1-blocking activity versus cytotoxicity” value is reported as “highest selectivity” and the EC50 was found to be 2.57 ± 0.45 µM. This compound also showed a half-maximal effective concentration (EC50) at 48 h in data set [4] of 4.63 ± 0.35 µM. In addition, the “activation of Jurkat-ECs where PD-L1 is absent” value in data set [6] is on record as “requires the presence of PD-L1”. The remaining activity at 0.005 µM in data set [2] (setting [7]) turned out to be 0%. Further, the remaining activity at 0.005 µM in data set [2] (setting [8]) was found to be 0%. Besides, in data set [2] (setting [9]), the IC50 is under 0.001 µM.
